In patent US10221440B2, “Method for determining the sensitivity of microorganisms to antimicrobial substances” (priority 2012, dated 2019):

What was measured:
[1] = system: aerobes in secretion of subgingival space of a patient with a disease of periodontium; experiment: Sensitivity to antibiotics and their mixture, subgingival secretion, aerobic conditions; type: cell-based, aerobic bacteria; conditions: Columbia Agar, dishes 1-3, 37° C., whole observation period; lawn in control after 4 hours
Excerpt: (§1) Express determination of sensitivity to a mixture of antibiotics, namely gentamicin (mainly affects aerobic bacteria) and metronidazole (active against anaerobic bacteria and microaerophils), while inoculating material obtained from a patient suffering from a disease of periodontium. Material to be investigated: freshly collected secretion of subgingival space. Nutrient medium: Columbia Agar medium enriched with sheep red blood cells and horse serum was used for cultivation in aerobic conditions. Anaerobic microorganisms were detected using Schaedler Agar containing sheep red blood cells and serum. […] were added to the medium: gentamicin (active against a wide range of aerobes) and metronidazole that selectively affects anaerobic bacteria. Medium in dishes 1 and 1a contains gentamicin; medium in dishes 2 and 2a contains metronidazole; medium in dishes 3 and 3a contains gentamicin and metronidazole; dishes 4 and 4a contain only the nutrient medium (control). The secretion of subgingival space was diluted fivefold using isotonic solution of sodium chloride and plated in the amount of 0.05 ml per dish using a spreader. […] The results were analyzed after 4, 8, 12, 20, 24 and 48 hours after the inoculation (anaerobic bacteria are characterized by lengthy growth).

[2] = system: anaerobes in secretion of subgingival space of a patient with a disease of periodontium; experiment: Sensitivity to antibiotics and their mixture, subgingival secretion, anaerobic conditions; type: cell-based, anaerobic bacteria; conditions: Schaedler Agar, dishes 1a-3a, 37° C., after 8 hours
Excerpt: as §1

[3] = system: bacteria in urine of a patient suffering from cystitis; type: cell-based
[4] = system: bacteria in secretion from the wound of a dog with a wound infection; experiment: Express determination of bacteria sensitivity, wound secretion of a dog; type: cell-based; conditions: ampicillin 1 μg/ml in enriched Columbia Agar, 37° C., lawn in control after 4-6 hours
Protocol: Express determination of bacteria sensitivity to ampicillin while inoculating material obtained from an animal (a dog) with a wound infection.
The method was carried out similarly to the way described in example 1.
Material to be investigated: secretion from the wound.
Nutrient medium: Columbia Agar medium enriched with horse serum and sheep red blood cells, vitamins and amino acids. Ampicillin was added to the medium in maximum concentration achievable at the location where the material was taken—1 μg/ml.
Material taken from the wound was plated using a swab on the medium in a Petri dish. Same medium and cultivation conditions (without ampicillin) were used for control purposes.
The culture was incubated at temperature of 37° C.

[5] = system: fungi that cause diseases of plants (powdery mildew); experiment: Express determination of sensitivity of plant-disease fungi to antifungal preparations; type: cell-based; conditions: 30° C., nystatin 0.4 mg/l; for growth in the well with the antifungal preparation: Sabouraud Agar with gentamicin 0.01 mg/l, after 8 hours, propiconazole 1%
Protocol: Express determination of the sensitivity of fungi that cause diseases of plants (powdery mildew) to antifungal preparations.
Material to be investigated: wipe sampling of isotonic solution of sodium chloride taken from affected areas of a leaf of a plant that has indications of fungi growth.
Nutrient medium: Sabouraud Agar medium enriched with mineral components, placed into a plate with six wells. in order to prevent the growth of bacteria, gentamicin was added to the agar in the amount of 0.01 mg/l. The antifungal preparations to be investigated were also added to the medium: 1st well—propiconazole, in final concentration of 1%; 2nd well—nystatin (0.4 mg/l); 3rd well—control without any antifungal preparations.
1.0 ml of isotonic solution a sodium chloride was washed from […] of the affected area. The material was plated using an inoculation loop.
The inoculations were cultivated at 30° C. The results were analyzed after 6, 8, 12, 20, 24 and 48 hours after the inoculation.

Compound	microbial growth in aerobic conditions [1]	microbial growth in anaerobic conditions [2]	growth in the well with the antifungal preparation [5]	other results
Cc1ncc([N+](=O)[O-])n1CCO [metronidazole]	Microbial growth	Microbial growth		
gentamicin	Microbial growth	Microbial growth		
CC[C@H]1OC(=O)[C@H](C)[C@@H](O[C@H]2C[C@@](C)(OC)[C@@H](O)[C@H](C)O2)[C@H](C)[C@@H](O[C@@H]2O[C@H](C)C[C@H](N(C)C)[C@H]2O)[C@](C)(O)C[C@@H](C)CN(C)[C@H](C)[C@@H](O)[C@]1(C)O [azithromycin]				growth of bacteria in the presence of the antibiotic [3]: no growth
CC1(C)S[C@@H]2[C@H](NC(=O)[C@H](N)c3ccccc3)C(=O)N2[C@H]1C(=O)O [ampicillin]				bacterial growth in the dish with the antibiotic [4]: No bacterial growth
C[C@@H]1[C@H](O)[C@@H](C)/C=C/C=C/CC/C=C/C=C/C=C/C=C/C(O[C@H]2O[C@H](C)[C@@H](O)[C@H](N)[C@@H]2O)CC2O[C@](O)(CC(O)C(O)CCC(O)CC(O)CC(O)CC(=O)O[C@H]1C)CC(O)C2C(=O)O (stereo partly drawn) [nystatin]			growth was observed	sensitivity of the mold to the preparation [5]: resistant
CCCC1COC(Cn2cncn2)(c2ccc(Cl)cc2Cl)O1 (stereo not drawn) [propiconazole]			No growth	
